According to ChEMBL document CHEMBL5576134, “Targeting Pancreatic Cancer with Novel Nicolaioidesin C Derivatives: Molecular Mechanism, In Vitro, and In Vivo Evaluations” (J Med Chem, 2024):
Active and inactive are the calls of the source. No cut-off for these calls is given here.

Columns and labels:
[1] = system: MIA PaCa-2; experiment: Antimetastatic activity in human MIA PaCa-2 cells in DMEM media assessed as reduction in colony area at 10 uM incubated for 24 hrs by crystal violet staining-based assay; assay type: functional; parameters: scale not given: the % may be the effect or the level left
[2] = system: MIA PaCa-2; experiment: Antitumor activity against human MIA PaCa-2 cells xenografted in BALB/c/Nu/Nu mouse assessed as reduction in tumor cell density at 60 mg/kg, ip administered 5 times a week for 4 weeks by H and E staining based analysis; assay type: functional, organism-based
[3] = Modulation of PI3K/AKT/mTOR signalling pathway in human MIA PaCa-2 cells in DMEM medium assessed as decrease in Akt phosphorylation at 5 uM measured for 6 hrs by Western blot analysis; assay type: cell-based; details: filed as modulator
[4] = system: Mus musculus; experiment: In-vivo modulation of PI3K/AKT/mTOR signalling pathway in human MIA PaCa-2 cells xenografted in BALB/c/Nu/Nu mouse assessed as downregulation of CHOP level at 60 mg/kg, ip administered 5 times a week for 4 weeks in presence of gemcitabine by Western blot analysis; assay type: functional, organism-based
[5] = system: MIA PaCa-2; experiment: Antitumor activity against human MIA PaCa-2 cells xenografted in BALB/c/Nu/Nu mouse assessed as tumor volume at 60 mg/kg, ip administered 5 times a week for 4 weeks and measured on day 32 in presence of gemcitabine (reference value: 1417 mm3); assay type: functional; details: time 32 day
[6] = system: MIA PaCa-2; experiment: Preferential cytotoxicity against human MIA PaCa-2 cells in DMEM measured after 24 hrs by WST-8 cell counting analysis; assay type: functional, cell-based; details: MIA PaCa-2, 24 h
[7] = Selectivity index, ratio of IC50 for preferential cytotoxicity against human MIA PaCa-2 cells in DMEM to PC50 for preferential cytotoxicity against human MIA PaCa-2 cells in nutrient-deprived medium; assay type: functional
[8] = Modulation of PI3K/AKT/mTOR signalling pathway in human MIA PaCa-2 cells in DMEM medium assessed as downregulation of AKT expression at 1 to 5 uM incubated for 24 hrs in presence of gemcitabine by Western blot analysis; assay type: cell-based; details: filed as modulator, dose 1-5 µM
[9] = system: MIA PaCa-2; experiment: Antitumor activity against human MIA PaCa-2 cells xenografted in BALB/c/Nu/Nu mouse assessed as reduction in final tumor weight at 60 mg/kg, ip administered 5 times a week for 4 weeks in presence of gemcitabine (reference value: […]); assay type: functional
[10] = system: MIA PaCa-2; experiment: Induction of endoplasmic reticulum (ER) stress in human MIA PaCa-2 cells assessed as reduction in CHOP expression measured after 6 hrs by Western blot analysis; assay type: functional, cell-based; details: dose 5.0 µM
[11] = system: MIA PaCa-2; experiment: Antimetastatic activity in human MIA PaCa-2 cells in DMEM media assessed as reduction in colony area at 5 uM incubated for 24 hrs by crystal violet staining-based assay (reference value: 37%); assay type: functional; parameters: scale not given: the % may be the effect or the level left
[12] = system: MIA PaCa-2; experiment: Induction of endoplasmic reticulum (ER) stress in human MIA PaCa-2 cells assessed as reduction in GRP78 expression at 5 uM measured after 6 hrs by Western blot analysis; assay type: functional, cell-based
[13] = Modulation of PI3K/AKT/mTOR signalling pathway in human MIA PaCa-2 cells in DMEM medium assessed as downregulation of GRP78 expression incubated for 24 hrs in presence of gemcitabine by Western blot analysis; assay type: cell-based; details: filed as modulator, dose 1-5 µM
[14] = Toxicity in BALB/c/Nu/Nu mouse xenografted with human MIA PaCa-2 cells assessed as change in body weight at 60 mg/kg, ip administered 5 times a week for 4 weeks in presence of gemcitabine; assay type: organism-based; details: in vivo, 672 h
[15] = system: MIA PaCa-2; experiment: Preferential cytotoxicity against human MIA PaCa-2 cells in nutrient-deprived medium assessed as alteration in cell morphology by measuring cell rounding at 0.5 to 1 uM measured after 24 hrs by acridine orange and ethidium bromide dual fluorescent staining based microscopic analysis; assay type: functional; details: dose 0.5-1 µM
[16] = system: MIA PaCa-2; experiment: Antitumor activity against human MIA PaCa-2 cells xenografted in BALB/c/Nu/Nu mouse assessed as reduction in number of blood vessels in skin at 20 mg/kg, ip administered 5 times a week for 4 weeks; assay type: functional, organism-based
[17] = system: MIA PaCa-2; experiment: Preferential cytotoxicity against human MIA PaCa-2 cells in nutrient-deprived medium measured after 24 hrs by WST-8 cell counting analysis; assay type: functional
[18] = Modulation of PI3K/AKT/mTOR signalling pathway in human MIA PaCa-2 cells in DMEM medium assessed as downregulation of AKT expression incubated for 24 hrs in presence of gemcitabine by Western blot analysis; assay type: cell-based; details: filed as modulator, dose 1-5 µM
[19] = system: PANC-1; experiment: Preferential cytotoxicity against human PANC-1 cells in DMEM measured after 24 hrs by WST-8 cell counting analysis; assay type: functional, cell-based; details: PANC-1, 24 h
[20] = system: MIA PaCa-2; experiment: Preferential cytotoxicity against human MIA PaCa-2 cells in nutrient-deprived medium assessed as alteration in cell morphology by measuring membrane rupture at 0.5 to 1 uM measured after 24 hrs by acridine orange and ethidium bromide dual fluorescent staining based microscopic analysis; assay type: functional; details: dose 0.5-1 µM
[21] = system: MIA PaCa-2; experiment: Antitumor activity against human MIA PaCa-2 cells xenografted in BALB/c/Nu/Nu mouse assessed as reduction in final tumor weight at 20 mg/kg, ip administered 5 times a week for 4 weeks (reference value: […]); assay type: functional
[22] = system: Mus musculus; experiment: In-vivo modulation of PI3K/AKT/mTOR signalling pathway in human MIA PaCa-2 cells xenografted in BALB/c/Nu/Nu mouse assessed as downregulation of TRB3 level at 60 mg/kg, ip administered 5 times a week for 4 weeks in presence of gemcitabine by Western blot analysis; assay type: functional, organism-based
[23] = Toxicity in BALB/c/Nu/Nu mouse xenografted with human MIA PaCa-2 cells assessed as change in body weight at 20 mg/kg, ip administered 5 times a week for 4 weeks; assay type: organism-based; details: in vivo, 672 h
[24] = Selectivity index, ratio of IC50 for preferential cytotoxicity against human PANC-1 cells in DMEM to PC50 for preferential cytotoxicity against human PANC-1 cells in nutrient-deprived medium; assay type: functional
[25] = system: Mus musculus; experiment: In-vivo modulation of PI3K/AKT/mTOR signalling pathway in human MIA PaCa-2 cells xenografted in BALB/c/Nu/Nu mouse assessed as downregulation of mTOR phosphorylation at 60 mg/kg, ip administered 5 times a week for 4 weeks in presence of gemcitabine by Western blot analysis; assay type: functional, organism-based
[26] = system: Mus musculus; experiment: In-vivo modulation of PI3K/AKT/mTOR signalling pathway in human MIA PaCa-2 cells xenografted in BALB/c/Nu/Nu mouse assessed as downregulation of GRP78 level at 60 mg/kg, ip administered 5 times a week for 4 weeks in presence of gemcitabine by Western blot analysis; assay type: functional, organism-based
[27] = system: MIA PaCa-2; experiment: Preferential cytotoxicity against human MIA PaCa-2 cells in nutrient-deprived medium assessed as alteration in cell morphology by measuring membrane blebbing at 0.5 to 1 uM measured after 24 hrs by acridine orange and ethidium bromide dual fluorescent staining based microscopic analysis; assay type: functional; details: dose 0.5-1 µM
[28] = system: MIA PaCa-2; experiment: Antitumor activity against human MIA PaCa-2 cells xenografted in BALB/c/Nu/Nu mouse assessed as tumor volume at 20 mg/kg, ip administered 5 times a week for 4 weeks and measured on day 32 (reference value: 1417 mm3); assay type: functional; details: time 32 day
[29] = system: MIA PaCa-2; experiment: Antimetastatic activity in human MIA PaCa-2 cells in DMEM media assessed as inhibition of cell migration at 10 uM incubated for 36 hrs relative to control (reference value: 30%); assay type: functional

In the case of `CC(C)=CCCC1=CC[C@H](C(=O)c2c(O)cccc2O)[C@@H](c2cccc(F)c2F)C1` (relative stereo), the Activity [1] is reported as 91%, the Activity [2] is reported as “Active” and the Activity [3] is reported as “Active”. For the same compound, the Activity [4] was “Active”, the Activity [5] was 528 mm3 and the IC50 [6] was 60.2 µM. For the same compound, the “Selectivity Index” value [7] was 176, the Activity [8] was “Active” and the Activity [9] was 139 mg. The Activity [10] was “Dose-Dependent Effect”, the Activity [11] was 14% and the Activity [12] was “Active”. The Activity [13] was “Dose-Dependent Effect”, the Activity [14] was “Non-Toxic” and the Activity [15] was “Active”. For the same compound, the Activity [16] was “Active”, the PC50 [17] was 0.34 µM and the Activity [18] was “Dose-Dependent Effect”. The IC50 [19] was 9.2 µM, the Activity [20] was “Active” and the Activity [21] was 321 mg. The Activity [22] was “Active”, the Activity [23] was “Non-Toxic” and the “Selectivity Index” value [24] was 40.8. For the same compound, the Activity [25] was “Active”, the Activity [26] was “Active” and the Activity [27] was “Active”. The Activity [28] was 879 mm3 and the inhibition at 10 µM [29] was 77%.
